Results reported in article PMC6691761, “Potential multifunctional agents with anti-hepatoma and anti-inflammation properties by inhibiting NF-кB activation” (Journal of Enzyme Inhibition and Medicinal Chemistry, 2019).

Assays:
Assay type in all cases: cell-based
[1] = tested on: human gastric adenocarcinoma cells (SGC7901); assay: Cytotoxicity, MTT assay, SGC7901; settings: for IC50: MTT, 24 h; for SGC7901 SI (selectivity index): quotient of IC50 towards LO2 cells
From the text: (§1) Compounds 83–102 were screened against human neoplastic cell lines, such as human breast cancer cells (MCF-7), human colon cancer cells (HCT116), human lung carcinoma cells (A549), human gastric adenocarcinoma cells (SGC7901), human liver hepatocellular carcinoma cell line (HepG2), human cervical carcinoma cells (HeLa), human acute mononuclear granulocyte leukaemia (THP-1), and human normal hepatic cell line (LO2) using modified MTT assay. All the cells were obtained from the American Type Culture Collection (ATCC, Manassas, VA). The cells were cultured in DMEM or 1640. Positive controls (Doxorubicin (DOX) and Curcumin) and BAPs were initially dissolved in dimethyl sulphoxide (DMSO). Experimental concentration of DMSO was always 0.1% (v/v). The concentrations of BAPs and positive controls were 50, 20, 10, 5, 2.5, 1, 0.5, 0.1, 0.05, and 0.01 μg/mL.
(§2) The cells (1 × 10^4 cells/well) were seeded in a 96-well plate and incubated for 24 h. Cells treated with serial concentrations of drugs were incubated for another 24 h. After the media removed, 20 μL of MTT (5 mg/mL) solution was added and incubated for 4 h at 37 °C. The MTT solution was removed and then 150 μL of DMSO was added. The optical density was measured with a multi-well plate reader (TECAN, Mӓnnedorf, Switzerland) at 570 nm. The results are expressed as a decrease in the cell viability (%) in comparison to untreated controls. The concentration of each compound was examined in triplicate, and the IC50 values are expressed in Table 1.

[2] = tested on: human lung carcinoma cells (A549); assay: Cytotoxicity, MTT assay, A549; settings: for IC50: MTT, 24 h; for A549 SI (selectivity index): quotient of IC50 towards LO2 cells
From the text: as §1, §2

[3] = tested on: human colon cancer cells (HCT116); assay: Cytotoxicity, MTT assay, HCT116; settings: for IC50: MTT, 24 h; for HCT116 SI (selectivity index): quotient of IC50 towards LO2 cells
From the text: as §1, §2

[4] = tested on: TNF-α production in LPS-stimulated RAW264.7 cells; assay: TNF-α production in LPS-stimulated RAW264.7 cells, ELISA
Experimental: The anti-inflammatory activities of BAPs were evaluated by ELISA. After pretreated with 30 μM of positive drug pyrrolidinedithiocarbamate (PDTC) or 6 μM of BAPs for 2 h, cells were treated with LPS (1.0 μg/mL) for 22 h. The culture media were collected and centrifuged for detecting the expression levels of TNF-α by an ELISA kit (eBioScience, San Diego, CA).
TNF-α is a common pro-inflammatory factors that can be produced by LPS-stimulated RAW264.7 macrophage[14]^,[24]. In order to evaluate the anti-inflammatory activity of BAPs, the effect of BAPs on TNF-α production in LPS-stimulated RAW264.7 cells was detected by ELISA. […] Only 92 presented slightly lower expression of TNF-α secretion (about 57%).

[5] = tested on: human breast cancer cells (MCF-7); assay: Cytotoxicity, MTT assay, MCF-7; settings: for IC50: MTT, 24 h; for MCF-7 SI (selectivity index): quotient of IC50 towards LO2 cells
From the text: as §1, §2

[6] = tested on: human acute mononuclear granulocyte leukaemia (THP-1); assay: Cytotoxicity, MTT assay, THP-1; settings: for IC50: MTT, 24 h; for THP-1 SI (selectivity index): quotient of IC50 towards LO2 cells
From the text: as §1, §2

[7] = tested on: human cervical carcinoma cells (HeLa); assay: Cytotoxicity, MTT assay, HeLa; settings: for IC50: MTT, 24 h; for HeLa SI (selectivity index): quotient of IC50 towards LO2 cells
From the text: as §1, §2

[8] = tested on: human liver hepatocellular carcinoma cell line (HepG2); assay: Cytotoxicity, MTT assay, HepG2; settings: for IC50: MTT, 24 h; for HepG2 SI (selectivity index): quotient of IC50 towards LO2 cells
From the text: as §1, §2

[9] = tested on: human normal hepatic cell line (LO2); assay: Toxicity to normal cells, MTT assay, LO2; settings: 24 h
From the text: as §1, §2

[10] = BAPs 6.0 μM, PDTC 30 μM, LPS 1.0 μg/mL

Row | SMILES | IC50 [1] | SGC7901 SI (selectivity index) [1] | IC50 [2] | A549 SI (selectivity index) [2] | IC50 [3] | HCT116 SI (selectivity index) [3] | TNF-α secretion [4, 10] | IC50 [5] | MCF-7 SI (selectivity index) [5] | IC50 [6] | THP-1 SI (selectivity index) [6] | IC50 [7] | HeLa SI (selectivity index) [7] | IC50 [8] | HepG2 SI (selectivity index) [8] | IC50 [9] | other results
1 | CN1CC(=Cc2cccc(N=Cc3cc(F)ccc3O)c2)C(=O)C(=Cc2ccccc2F)C1 [Compound 93] | 2.8 ± 0.5 µM | 5.4 | 3.7 ± 0.1 µM | 4.1 | 2.5 ± 1.8 µM | 6.0 | 45% | 3.8 ± 0.9 µM | 4.0 | 2.4 ± 0.5 µM | 6.3 | 3 ± 0.1 µM | 5.0 | 2.2 ± 0.2 µM | 6.9 | 15.1 ± 0.7 µM | Inhibition of TNF-α secretion compared with PDTC (in words) [4, 10]: superior to PDTC group
2 | CN1C/C(=C\c2cccc(N)c2)C(=O)/C(=C/c2ccccc2F)C1 [Compound 92, (3E,5E)-3-(3-aminobenzylidene)-5-(2-fluorobenzylidene)-1-methylpiperidin-4-one] | – | 6.8 | – | 8.6 | – | – | – | – | 6.8 | – | – | – | – | – | – | – | IC50 ([1]; Homo sapiens, SGC-7901): 2.8 ± 0.2 µM; IC50 ([2]; Homo sapiens, A549, 24 h): 2.2 ± 0.1 µM; IC50 ([3]; Homo sapiens, HCT-116): 3.1 ± 0.3 µM; TNF-α secretion (percent of LPS control) ([4]; 6.0 μM, 2 h pretreatment, LPS 1.0 μg/mL 22 h, ELISA): about 57%; IC50 ([5]; Homo sapiens, MCF7): 2.8 ± 0.3 µM; IC50 ([6]; Homo sapiens, THP-1, 24 h): 1.2 ± 0.2 µM; IC50 ([7]; Homo sapiens, HeLa): 2.5 ± 0.2 µM; IC50 ([8]; Homo sapiens, HepG2, 24 h): 1.1 ± 0.1 µM; IC50 ([9]; Homo sapiens): 18.9 ± 0.7 µM
3 | CN1CC(=Cc2cccc(N=Cc3cc([N+](=O)[O-])ccc3F)c2)C(=O)C(=Cc2ccccc2F)C1 [Compound 97] | 3.4 ± 0.8 µM | 3.5 | 5.7 ± 0.4 µM | 2.1 | 11.7 ± 0.2 µM | 1.0 | 45% | 10.7 ± 0.1 µM | 1.1 | 8.1 ± 0.4 µM | 1.5 | 5.1 ± 1.2 µM | 2.3 | 4.2 ± 0.5 µM | 2.8 | 11.8 ± 0.4 µM | –
4 | COc1ccc(/C=C2\CN(C)C/C(=C\c3ccc(Cl)c(Cl)c3)C2=O)cc1 [Compound 91] | 6.4 ± 0.1 µM | 2.2 | 9.2 ± 0.1 µM | 1.5 | 18.1 ± 0.2 µM | 0.8 | – | 12.5 ± 0.5 µM | 1.1 | 7.2 ± 0.2 µM | 2.0 | 17 ± 1.3 µM | 0.8 | 4.5 ± 0.7 µM | 3.2 | 14.2 ± 0.3 µM | –
5 | CN1CC(=Cc2cccc(N=Cc3ccc(O)c(O)c3O)c2)C(=O)C(=Cc2ccccc2F)C1 [Compound 100] | 3.6 ± 0.1 µM | 5.5 | 1.9 ± 0.2 µM | 10.4 | 11.9 ± 0.1 µM | 1.7 | 45% | 7.7 ± 0.2 µM | 2.6 | 7.7 ± 0.1 µM | 2.6 | 11.9 ± 0.2 µM | 1.7 | 8.8 ± 0.4 µM | 2.3 | 19.8 ± 0.3 µM | –
6 | COc1ccc(/C=C2\CN(C)C/C(=C\c3cc(OC)c(OC)c(OC)c3)C2=O)cc1 [Compound 90] | 7 ± 0.4 µM | 2.4 | 5.8 ± 0.2 µM | 2.8 | 12.1 ± 0.4 µM | 1.4 | – | 15.5 ± 0.9 µM | 1.1 | 5 ± 0.3 µM | 3.3 | 15.5 ± 0.2 µM | 1.1 | 8.2 ± 0.6 µM | 2.0 | 16.5 ± 0.1 µM | –
